Results taken from paper PMC13110267, “Fair and Square: Design, Synthesis and Biological Evaluations of Squaric Acid Derivatives as Novel HDAC8 Inhibitors” (Chemmedchem, 2026).

Assays:
[1] = molecular target: T1, HDAC8 (Homo sapiens, UniProt Q9BY41); assay: HDAC8 fluorometric enzyme inhibition assay, purified recombinant enzyme, 10-point dose-response; type: biochemical; details: Table 1; purified recombinant HDAC8 10 nM; mean of three independent experiments; >35 µM = weak inhibitor
T1 construct: made in house
T1 sequence (Q9BY41 1-377): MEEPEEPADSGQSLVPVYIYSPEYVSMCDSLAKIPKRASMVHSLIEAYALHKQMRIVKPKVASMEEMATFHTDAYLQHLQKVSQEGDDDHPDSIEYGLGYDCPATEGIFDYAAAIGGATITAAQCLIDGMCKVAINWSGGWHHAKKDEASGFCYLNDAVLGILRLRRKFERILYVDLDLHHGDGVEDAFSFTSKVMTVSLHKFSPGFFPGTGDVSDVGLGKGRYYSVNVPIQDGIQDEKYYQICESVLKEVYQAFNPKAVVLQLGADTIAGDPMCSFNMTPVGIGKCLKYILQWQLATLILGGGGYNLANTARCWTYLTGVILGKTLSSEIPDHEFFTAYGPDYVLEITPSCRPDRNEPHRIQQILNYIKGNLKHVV
Method: (§1) Therefore, the first stage of biological evaluation focused on determining inhibitory concentration (IC50) values of the squaric acid derivatives against HDAC8 and HDAC4 using purified recombinant enzymes. Enzymatic inhibition was quantified using 10‐point dose–response assays, from which IC50 values were calculated (Table 1). HDAC8 and HDAC4 were employed at concentrations of 10 nM and 1 nM, respectively, while other zinc‐dependent HDAC isoenzymes were used at approximate concentrations of ∼1 nM, reflecting the purity of the commercially available preparations. […]
(§2) 1.3.1 HDAC Assay General Inform ation
(§3) The activity of HDAC1, HDAC4, HDAC6, HDAC8, and HDAC11 was determined using a fluorometric assay in black half-area 96-well microplates (Greiner Bio -One , Germany). HDAC1 (#50051) and HDAC 6 (#50006) were purchased from BPS Bioscience.
(§4) HDAC4, HDAC8 and HDAC11 were produced in house as previously described.7- 9 The enzymes were pre-incubated with serial dilutions of the compounds for 1 hour at 30 °C in either assay buffer (25 mM Tris-HCl, 75 mM KCl and 0.001% (v/v) Pluronic F -127, pH 8.0) or MAL buffer (137 m M NaCl, 50 mM Tris-HCl, 2.7 mM KCl, 1 mM MgCl₂, 0 .5 mg/ml bovine serum albumin (BSA), pH 8.0b) for HDAC11. The enzyme reaction was initiated by the addition of the following substrates: 20 µM Boc-L ys(T FA) -AMC for HDAC4 and HDAC8; 80 µM Boc-L ys(T FA) -AMC for HDAC11; and 50 µM Boc -Lys(Ac)-AMC for HDAC1 and HDAC6. After an incubation period of 60 minutes, the reaction was terminated by the addition of 1.7 µM 9,9,9-trifluoro-8-oxo-N -phenyl -nonanamide (SATFMK) for […]
(§5) HDAC6, and 1 µM 1,1-dimethyl -2-[5-(trifluoromethyl)pyrazin-2-yl]isoindoline -4-carbohydroxamic acid (FT895) for HDAC11. The deacetylated substrate was then cleaved into fluorescent 7-amino -4- methylcoumarin (AMC) by the addition of 0.42 mg/mL trypsin.
(§6) Measurements were performed using a PHERAstar FS fluorescence microplate reader (BMG LABTECH) with excitation at 360 nm and emission at 460 nm. The normalised enzyme activities were plotted against the respective ligand concentration and fitted with a four-parameter logistic function using GraphPad Prism 6 software.

[2] = molecular target: T2, HDAC4 (Homo sapiens, UniProt P56524); assay: HDAC4 fluorometric enzyme inhibition assay, purified recombinant enzyme, 10-point dose-response; type: biochemical; details: Table 1; purified recombinant HDAC4 1 nM; mean of three independent experiments; >35 µM = weak inhibitor
T2 construct: made in house
Method: as §1, §2, §3, §4, §5, §6

T2 sequence (P56524 whole entry): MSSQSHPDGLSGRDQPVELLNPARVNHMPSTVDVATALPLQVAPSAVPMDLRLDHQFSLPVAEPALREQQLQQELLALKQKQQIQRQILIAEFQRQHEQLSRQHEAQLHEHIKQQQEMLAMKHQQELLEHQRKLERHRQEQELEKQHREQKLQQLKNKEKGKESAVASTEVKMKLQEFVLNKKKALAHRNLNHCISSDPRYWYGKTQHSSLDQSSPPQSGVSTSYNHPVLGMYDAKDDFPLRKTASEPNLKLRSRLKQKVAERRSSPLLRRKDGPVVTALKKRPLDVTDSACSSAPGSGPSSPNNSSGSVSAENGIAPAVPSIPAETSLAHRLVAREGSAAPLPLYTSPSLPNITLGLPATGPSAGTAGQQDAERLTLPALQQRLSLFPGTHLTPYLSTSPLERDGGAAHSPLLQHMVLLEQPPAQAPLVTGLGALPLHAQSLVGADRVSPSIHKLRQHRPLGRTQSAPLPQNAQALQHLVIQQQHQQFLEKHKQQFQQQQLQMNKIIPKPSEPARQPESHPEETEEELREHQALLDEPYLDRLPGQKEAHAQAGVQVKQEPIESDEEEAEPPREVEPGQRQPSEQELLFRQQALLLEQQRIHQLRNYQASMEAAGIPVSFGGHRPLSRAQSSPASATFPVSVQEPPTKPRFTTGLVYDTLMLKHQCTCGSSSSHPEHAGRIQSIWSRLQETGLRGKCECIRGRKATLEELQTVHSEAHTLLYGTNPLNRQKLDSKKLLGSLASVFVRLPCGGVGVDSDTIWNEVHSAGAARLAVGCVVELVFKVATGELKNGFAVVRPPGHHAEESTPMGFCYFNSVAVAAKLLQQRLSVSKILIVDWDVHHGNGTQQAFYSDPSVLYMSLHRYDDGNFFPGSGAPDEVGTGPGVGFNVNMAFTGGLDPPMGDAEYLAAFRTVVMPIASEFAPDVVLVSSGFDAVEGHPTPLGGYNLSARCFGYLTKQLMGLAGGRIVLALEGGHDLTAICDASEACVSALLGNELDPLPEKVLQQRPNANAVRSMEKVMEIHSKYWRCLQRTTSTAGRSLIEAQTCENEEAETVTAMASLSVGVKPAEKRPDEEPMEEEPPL

SMILES | IC50 [1] | IC50 [2]
O=c1c(N2CCCCC2)c(N2CCCCC2)c1=O [Compound 16b] | > 35 µM | > 35 µM
CCOc1c(Nc2ccc(OC)cc2)c(=O)c1=O [Compound 9l] | > 35 µM | > 35 µM
CCOc1c(N(C)c2ccc(Br)cc2)c(=O)c1=O [Compound 9s] | > 35 µM | > 35 µM
CCOc1c(Nc2ccccc2)c(=O)c1=O [Compound 9a] | > 35 µM | > 35 µM
CCOc1c(N(C(C)C)C(C)C)c(=O)c1=O [Compound 11] | > 35 µM | > 35 µM
CCOc1c(Nc2ccc(Br)cc2)c(=O)c1=O [Compound 9f] | > 35 µM | > 35 µM
CCOc1c(Nc2cccc(C)c2)c(=O)c1=O [Compound 9p] | > 35 µM | > 35 µM
CCOc1c(NCc2ccccc2)c(=O)c1=O [Compound 10a] | > 35 µM | > 35 µM
CCOc1c(N2CCCCC2)c(=O)c1=O [Compound 12c] | > 35 µM | > 35 µM
CCOc1c(N2CCSCC2)c(=O)c1=O [Compound 12g] | > 35 µM | > 35 µM
CCOc1c(N2CCSC2)c(=O)c1=O [Compound 12i] | > 35 µM | > 35 µM
CC(C)N1CCN(C(C)C)c2c1c(=O)c2=O [Compound 17a] | > 35 µM | > 35 µM
CCOc1c(NCc2cccc(Cl)c2)c(=O)c1=O [Compound 10c] | > 35 µM | > 35 µM
CCOc1c(NCc2ccc(Cl)cc2)c(=O)c1=O [Compound 10d] | > 35 µM | > 35 µM
CCOc1c(N2CCN(C(=O)OC(C)(C)C)CC2)c(=O)c1=O [Compound 12j] | > 35 µM | > 35 µM
CCOc1c(Nc2ccccc2O)c(=O)c1=O [Compound 9g] | > 35 µM | > 35 µM
CCOc1c(N2CCCc3ccc(Br)cc32)c(=O)c1=O [Compound 12k] | > 35 µM | > 35 µM
O=c1c(Nc2ccccc2)c(Nc2ccccc2)c1=O [Compound 13a] | > 35 µM | 14 ± 2 µM
CCOc1c(NCc2ccc(Br)cc2)c(=O)c1=O [Compound 10g] | > 35 µM | > 35 µM
CCOc1c(Nc2ccc(Cl)cc2)c(=O)c1=O [Compound 9d] | > 35 µM | > 35 µM
CCOc1c(Nc2cccc(C(F)(F)F)c2)c(=O)c1=O [Compound 9m] | > 35 µM | > 35 µM

Results, then the compound that gave them:

IC50 [1] | IC50 [2] | SMILES
> 35 µM | > 35 µM | CCOc1c(Nc2cccc(C(=O)O)c2)c(=O)c1=O [Compound 9r]
> 35 µM | > 35 µM | CCOc1c(Nc2ccc(C)cc2)c(=O)c1=O [Compound 9q]
> 35 µM | > 35 µM | CCOc1c(Nc2cccc(Br)c2)c(=O)c1=O [Compound 9e]
> 35 µM | > 35 µM | CCOc1c(Nc2ccccc2OC)c(=O)c1=O [Compound 9j]
> 35 µM | > 35 µM | CCOc1c(Nc2cccc(Cl)c2)c(=O)c1=O [Compound 9c]
> 35 µM | > 35 µM | CCOc1c(Nc2ccccc2C)c(=O)c1=O [Compound 9o]
> 35 µM | > 35 µM | CCOc1c(N2CCS(=O)(=O)CC2)c(=O)c1=O [12 h]
> 35 µM | > 35 µM | O=c1c(N(Cc2ccccc2)c2ccc(Br)cc2)c(N(Cc2ccccc2)c2ccc(Br)cc2)c1=O [Compound 15]
> 35 µM | > 35 µM | CCOc1c(NCc2ccccc2Cl)c(=O)c1=O [Compound 10b]
> 35 µM | > 35 µM | CCOc1c(Nc2cccc(O)c2)c(=O)c1=O [9 h]
> 35 µM | > 35 µM | CCOc1c(N2C[C@@H](C)O[C@@H](C)C2)c(=O)c1=O [Compound 12f]
> 35 µM | > 35 µM | CCOc1c(N2CCC2)c(=O)c1=O [Compound 12a]
> 35 µM | > 35 µM | CCOc1c(N2CCOCC2)c(=O)c1=O [Compound 12e]
> 35 µM | > 35 µM | CCOc1c(Nc2ccc(O)cc2)c(=O)c1=O [Compound 9i]
> 35 µM | > 35 µM | CN(c1ccccc1)c1c(N(C)c2ccccc2)c(=O)c1=O [Compound 14a]
> 35 µM | > 35 µM | CCOc1c(N(C)Cc2ccc(Br)cc2)c(=O)c1=O [10 h]
> 35 µM | > 35 µM | CCOc1c(NCc2cccc(Br)c2)c(=O)c1=O [Compound 10f]
> 35 µM | > 35 µM | CCOc1c(N2CCCC2)c(=O)c1=O [Compound 12b]
> 35 µM | > 35 µM | O=c1c(N2CCOCC2)c(N2CCOCC2)c1=O [Compound 16a]
> 35 µM | > 35 µM | CCOc1c(NCc2ccccc2Br)c(=O)c1=O [Compound 10e]
> 35 µM | > 35 µM | CCOc1c(Nc2cccc(OC)c2)c(=O)c1=O [Compound 9k]
> 35 µM | > 35 µM | CCOc1c(Nc2ccc(C(F)(F)F)cc2)c(=O)c1=O [Compound 9n]
> 35 µM | > 35 µM | CCOc1c(N2CCCCCC2)c(=O)c1=O [Compound 12d]
> 35 µM | > 35 µM | CN(c1ccc(Br)cc1)c1c(N(C)c2ccc(Br)cc2)c(=O)c1=O [Compound 14c]
> 35 µM | > 35 µM | CN1CCCN(C)c2c1c(=O)c2=O [Compound 17b]
